Key:
Rattus norvegicus [1] = organism: Rattus norvegicus; experiment: Induction of stimulus generalization in rat trained to discriminate DOM assessed as appropriate responding level to training drug by two lever method; assay type: functional
[2] = Displacement of [3H]ketanserin from rat brain 5HT2 receptor
[3] = molecular target: Sigma non-opioid intracellular receptor 1 (Cavia porcellus, UniProt Q60492); experiment: Displacement of (+)-[3H]pentazocine from guinea pig brain membrane sigma1 receptor by scintillation spectrometric method
Chain of Sigma non-opioid intracellular receptor 1 (Q60492 whole entry): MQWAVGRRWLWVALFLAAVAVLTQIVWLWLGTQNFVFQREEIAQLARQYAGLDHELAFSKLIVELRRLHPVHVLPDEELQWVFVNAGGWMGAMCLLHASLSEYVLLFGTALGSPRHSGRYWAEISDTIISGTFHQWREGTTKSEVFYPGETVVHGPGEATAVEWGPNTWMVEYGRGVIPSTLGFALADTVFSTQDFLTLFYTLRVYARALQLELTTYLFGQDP

Rattus norvegicus [4] = organism: Rattus norvegicus; experiment: Induction of stimulus generalization in rat trained to discriminate PMMA assessed as appropriate responding level to training drug by two lever method; assay type: functional; conditions: for ED50: Rattus norvegicus
Rattus norvegicus [5] = organism: Rattus norvegicus; experiment: Induction of stimulus generalization in rat trained to discriminate MDMA assessed as appropriate responding level to training drug by two lever method; assay type: functional; conditions: for ED50: Rattus norvegicus
Rattus norvegicus [6] = organism: Rattus norvegicus; experiment: Induction of stimulus generalization in Sprague-Dawley rat trained to discriminate alpha-ET assessed as appropriate responding level to training drug by two lever method; assay type: functional; conditions: for ED50: Rattus norvegicus, Sprague-Dawley
Rattus norvegicus [7] = organism: Rattus norvegicus; experiment: Induction of stimulus generalization in Sprague-Dawley rat trained to discriminate PMMA assessed as appropriate responding level to training drug by two lever method; assay type: functional
Rattus norvegicus [8] = organism: Rattus norvegicus; experiment: Induction of stimulus generalization in Sprague-Dawley rat trained to discriminate MDMA assessed as appropriate responding level to training drug by two lever method; assay type: functional; conditions: for ED50: Rattus norvegicus, Sprague-Dawley
[9] = molecular target: Sodium-dependent dopamine transporter (Rattus norvegicus, UniProt P23977); experiment: Activity at DAT in rat synaptosomes assessed as release of [3H]DA after 5 mins by liquid scintillation counting method; assay type: subcellular
Chain of Sodium-dependent dopamine transporter (Rattus norvegicus, UniProt P23977) (P23977 whole entry): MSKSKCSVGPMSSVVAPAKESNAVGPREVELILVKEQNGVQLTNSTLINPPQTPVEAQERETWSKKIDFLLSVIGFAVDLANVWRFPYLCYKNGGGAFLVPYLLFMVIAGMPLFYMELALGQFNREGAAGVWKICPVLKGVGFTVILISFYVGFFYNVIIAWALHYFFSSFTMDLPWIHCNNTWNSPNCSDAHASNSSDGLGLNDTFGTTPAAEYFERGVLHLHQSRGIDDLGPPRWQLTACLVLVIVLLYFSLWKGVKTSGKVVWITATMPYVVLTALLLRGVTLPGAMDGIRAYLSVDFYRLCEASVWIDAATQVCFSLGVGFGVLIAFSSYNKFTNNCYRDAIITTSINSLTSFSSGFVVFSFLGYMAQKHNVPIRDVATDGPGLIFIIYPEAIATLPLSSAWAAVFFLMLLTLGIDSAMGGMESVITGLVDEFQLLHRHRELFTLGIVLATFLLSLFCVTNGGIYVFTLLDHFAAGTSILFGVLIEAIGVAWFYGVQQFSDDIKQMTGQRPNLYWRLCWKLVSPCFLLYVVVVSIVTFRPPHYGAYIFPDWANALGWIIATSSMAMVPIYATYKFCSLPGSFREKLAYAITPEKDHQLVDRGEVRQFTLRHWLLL

[10] = Activity at NET in rat synaptosomes assessed as release of [3H]NE after 30 mins by liquid scintillation counting method; assay type: subcellular
[11] = molecular target: Sodium-dependent serotonin transporter (Rattus norvegicus, UniProt P31652); experiment: Activity at SERT in rat synaptosomes assessed as release of [3H]HT after 5 mins by liquid scintillation counting method; assay type: subcellular
Chain of Sodium-dependent serotonin transporter (Rattus norvegicus, UniProt P31652) (P31652 whole entry): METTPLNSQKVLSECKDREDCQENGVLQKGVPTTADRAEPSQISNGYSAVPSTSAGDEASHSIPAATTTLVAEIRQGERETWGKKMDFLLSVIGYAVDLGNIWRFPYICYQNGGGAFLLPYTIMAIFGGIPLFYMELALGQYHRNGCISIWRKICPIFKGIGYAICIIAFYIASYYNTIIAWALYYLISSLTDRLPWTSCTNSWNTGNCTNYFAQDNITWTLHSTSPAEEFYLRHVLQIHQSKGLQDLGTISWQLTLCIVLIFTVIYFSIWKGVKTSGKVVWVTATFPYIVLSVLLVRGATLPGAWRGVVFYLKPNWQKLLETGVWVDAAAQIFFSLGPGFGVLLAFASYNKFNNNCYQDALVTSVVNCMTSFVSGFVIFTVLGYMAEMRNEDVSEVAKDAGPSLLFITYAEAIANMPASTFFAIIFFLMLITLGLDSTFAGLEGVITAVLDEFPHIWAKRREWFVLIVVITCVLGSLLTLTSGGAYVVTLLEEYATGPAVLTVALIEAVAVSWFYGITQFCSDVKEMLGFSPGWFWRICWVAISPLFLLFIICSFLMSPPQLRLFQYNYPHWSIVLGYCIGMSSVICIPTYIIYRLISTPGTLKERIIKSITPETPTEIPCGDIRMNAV

Rattus norvegicus [12] = organism: Rattus norvegicus; experiment: Induction of stimulus generalization in Sprague-Dawley rat trained to discriminate S(-)MCAT assessed as appropriate responding level to training drug by two lever method; assay type: functional
Rattus norvegicus [13] = organism: Rattus norvegicus; experiment: Induction of stimulus generalization in Sprague-Dawley rat trained to discriminate S(+)AMPH assessed as appropriate responding level to training drug by two lever method; assay type: functional
Rattus norvegicus [14] = organism: Rattus norvegicus; experiment: Induction of stimulus generalization in rat trained to discriminate S(+)methamphetamine assessed as appropriate responding level to training drug by two lever method; assay type: functional
[15] = molecular target: T1, 5-hydroxytryptamine receptor 2A (Rattus norvegicus, UniProt P14842); experiment: Displacement of [3H]DOB from 5HT2A in Sprague-Dawley rat cortex membranes measured after 15 mins by scintillation counting method; assay type: cell membranes
T1 sequence (P14842 whole entry): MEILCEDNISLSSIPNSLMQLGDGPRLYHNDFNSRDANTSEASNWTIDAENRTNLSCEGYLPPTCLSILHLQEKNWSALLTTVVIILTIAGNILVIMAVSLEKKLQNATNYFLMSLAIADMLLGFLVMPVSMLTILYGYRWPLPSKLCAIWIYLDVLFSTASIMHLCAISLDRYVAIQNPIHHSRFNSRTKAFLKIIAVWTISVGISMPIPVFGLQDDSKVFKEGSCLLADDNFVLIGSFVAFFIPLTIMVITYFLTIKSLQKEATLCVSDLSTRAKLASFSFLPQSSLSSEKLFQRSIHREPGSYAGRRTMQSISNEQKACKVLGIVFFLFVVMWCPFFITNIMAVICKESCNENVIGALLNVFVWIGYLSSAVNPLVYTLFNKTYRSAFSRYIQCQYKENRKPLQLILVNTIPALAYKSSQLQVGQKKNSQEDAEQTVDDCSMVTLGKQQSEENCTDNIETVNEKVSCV

Rattus norvegicus [16] = organism: Rattus norvegicus; experiment: Induction of stimulus generalization in Sprague-Dawley rat trained to discriminate DOM assessed as appropriate responding level to training drug by two lever method; assay type: functional
Rattus norvegicus [17] = organism: Rattus norvegicus; experiment: Induction of stimulus generalization in Sprague-Dawley rat trained to discriminate AMPH assessed as appropriate responding level to training drug by two lever method; assay type: functional; conditions: for ED50: Rattus norvegicus, Sprague-Dawley
Rattus norvegicus [18] = organism: Rattus norvegicus; experiment: Induction of stimulus generalization in rat trained to discriminate (+)amphetamine assessed as appropriate responding level to training drug by two lever method; assay type: functional
[19] = molecular target: T1, 5-hydroxytryptamine receptor 2A; experiment: Displacement of [125I](+/-)DOI from rat 5HT2A after 1 hr by beta scintillation counting method
[20] = Displacement of [3H]DTG from sigma receptor (unknown origin); parameters: species or system Homo sapiens
Rattus norvegicus [21] = organism: Rattus norvegicus; experiment: Induction of stimulus generalization in Sprague-Dawley rat trained to discriminate rac-cathinone assessed as appropriate responding level to training drug by two lever method; assay type: functional
Rhesus monkey = experiment: In vivo agonist activity at 5HT2A in DOM-trained rhesus monkey assessed as increase in discriminative stimulus administered subcutaneously pretreated before testing; assay type: functional; conditions: Macaca mulatta, sc
Rattus norvegicus [22] = experiment: In vivo agonist activity at 5HT2A in ip dosed DOM-trained Sprague-Dawley rat assessed as increase in discriminative stimulus pretreated before testing; assay type: functional
[23] = molecular target: Sodium-dependent serotonin transporter (Homo sapiens, UniProt P31645); experiment: Activity at SERT (unknown origin) assessed as release of [3H]HT
Chain of Sodium-dependent serotonin transporter (Homo sapiens, UniProt P31645) (P31645 whole entry): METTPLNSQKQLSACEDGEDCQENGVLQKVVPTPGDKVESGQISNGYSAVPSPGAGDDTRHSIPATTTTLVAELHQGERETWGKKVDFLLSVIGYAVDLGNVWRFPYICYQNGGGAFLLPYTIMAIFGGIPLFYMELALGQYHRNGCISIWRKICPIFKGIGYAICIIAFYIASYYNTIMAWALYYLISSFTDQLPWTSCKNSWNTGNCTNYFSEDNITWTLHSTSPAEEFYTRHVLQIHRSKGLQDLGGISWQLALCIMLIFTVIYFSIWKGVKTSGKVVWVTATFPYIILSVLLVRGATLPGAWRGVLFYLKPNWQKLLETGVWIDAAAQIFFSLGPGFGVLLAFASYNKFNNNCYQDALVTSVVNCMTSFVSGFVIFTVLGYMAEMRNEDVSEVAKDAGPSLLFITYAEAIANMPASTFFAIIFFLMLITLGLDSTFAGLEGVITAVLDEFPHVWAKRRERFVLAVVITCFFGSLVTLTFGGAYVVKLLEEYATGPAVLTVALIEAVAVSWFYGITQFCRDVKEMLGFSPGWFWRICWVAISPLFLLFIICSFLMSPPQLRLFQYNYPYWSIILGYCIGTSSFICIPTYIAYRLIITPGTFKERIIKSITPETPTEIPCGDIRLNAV

[24] = molecular target: Sodium-dependent dopamine transporter (Homo sapiens, UniProt Q01959); experiment: Activity at DAT (unknown origin) assessed as release of [3H]DA
Chain of Sodium-dependent dopamine transporter (Homo sapiens, UniProt Q01959) (Q01959 whole entry): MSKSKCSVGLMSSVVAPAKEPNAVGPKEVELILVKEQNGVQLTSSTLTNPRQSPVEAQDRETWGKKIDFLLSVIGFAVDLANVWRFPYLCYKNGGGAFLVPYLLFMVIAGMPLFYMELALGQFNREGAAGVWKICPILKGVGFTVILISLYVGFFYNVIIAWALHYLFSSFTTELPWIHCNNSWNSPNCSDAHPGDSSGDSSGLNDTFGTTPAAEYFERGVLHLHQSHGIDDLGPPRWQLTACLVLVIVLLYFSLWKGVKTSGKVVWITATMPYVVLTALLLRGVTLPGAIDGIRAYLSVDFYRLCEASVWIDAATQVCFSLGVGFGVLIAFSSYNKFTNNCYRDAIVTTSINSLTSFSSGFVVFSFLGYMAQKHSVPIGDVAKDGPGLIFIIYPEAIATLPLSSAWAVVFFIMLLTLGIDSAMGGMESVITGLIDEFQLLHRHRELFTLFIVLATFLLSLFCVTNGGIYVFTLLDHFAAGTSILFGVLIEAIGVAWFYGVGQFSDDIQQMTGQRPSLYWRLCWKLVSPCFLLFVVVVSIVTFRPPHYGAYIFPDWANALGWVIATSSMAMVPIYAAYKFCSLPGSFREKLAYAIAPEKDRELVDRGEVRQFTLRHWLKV

Homo sapiens = organism: Homo sapiens; experiment: Selectivity ratio of EC50 for SERT (unknown origin) assessed as release of [3H]HT to EC50 for DAT (unknown origin) by [3H]DA release assay
[25] = molecular target: T1, 5-hydroxytryptamine receptor 2A; experiment: Displacement of [3H]ketanserin from 5HT2A in Sprague-Dawley rat frontal cortex membranes measured after 15 mins by scintillation counting method; parameters: species or system Membrane

SMILES: C[C@H](N)Cc1c[nH]c2ccccc12
- ED50 (Rattus norvegicus [1]): 1.64 mg/kg
- Ki [2]: 2500 nM

SMILES: C[C@@H](Cc1ccccc1)NCCCCCc1ccccc1
- Ki [3]: 0.9 nM

SMILES: COc1cccc(C[C@@H](C)N)c1
- Activity (Rattus norvegicus [4]): 20 - 80%
- ED50 (Rattus norvegicus [5]): 1.4 mg/kg

SMILES: CNC(C)Cc1ccc(OC)cc1 (stereo not given)
- ED50 (Rattus norvegicus [6]): 0.7 mg/kg
- ED50 (Rattus norvegicus [7]): 0.4 mg/kg
- ED50 (Rattus norvegicus [8]): 0.2 mg/kg

SMILES: CC(N)Cc1ccc2c(c1)OCO2 (racemic) [TENAMFETAMINE]
- ED50 (Rattus norvegicus [4]): 0.5 mg/kg
- EC50 [9]: 190 nM
- EC50 [10]: 108 nM
- EC50 [11]: 160 nM

SMILES: CCCCCCN(C)CCc1ccccc1
- Ki [3]: 48 nM

SMILES: CN[C@@H](C)Cc1ccccc1 [METHAMPHETAMINE]
- ED50 (Rattus norvegicus [12]): 0.17 mg/kg
- ED50 (Rattus norvegicus [13]): 0.2 mg/kg
- ED50 (Rattus norvegicus [14]): 0.06 mg/kg

SMILES: COc1ccc(C[C@H](C)N)cc1
- Activity (Rattus norvegicus [4]): 20 - 80%
- Activity (Rattus norvegicus [5]): 20 - 80%

SMILES: COc1ccc(OC)c(CC(C)N)c1 (stereo not given)
- Ki [15]: 268 nM

SMILES: CCC(N)Cc1c[nH]c2ccccc12 (racemic) [ETRYPTAMINE]
- ED50 (Rattus norvegicus [16]; Rattus norvegicus, Sprague-Dawley): 6.6 mg/kg
- ED50 (Rattus norvegicus [6]): 1.3 mg/kg
- ED50 (Rattus norvegicus [1]): 6.6 mg/kg
- ED50 (Rattus norvegicus [8]): 3.5 mg/kg
- Activity (Rattus norvegicus [17]): 20 - 80%

SMILES: CC(N)C(=O)c1ccccc1 (racemic) [DEALKYLATED DIETHYLPROPION]
- ED50 (Rattus norvegicus [18]): 0.72 mg/kg

SMILES: COc1cc([C@H](OC)[C@@H](C)N)c(OC)cc1Br
- Ki [19]: 17.4 nM

SMILES: CN[C@@H](C)Cc1ccc(OC)cc1
- ED50 (Rattus norvegicus [4]): 0.3 mg/kg
- EC50 [9]: 1000 nM
- EC50 [10]: 147 nM
- EC50 [11]: 41 nM

SMILES: CN[C@@H](C)C(=O)c1ccccc1
- EC50 [9]: 14.8 nM
- ED50 (Rattus norvegicus [12]): 0.11 mg/kg
- EC50 [10]: 13.1 nM
- ED50 (Rattus norvegicus [13]): 0.18 mg/kg
- EC50 [11]: 1770 nM
- ED50 (Rattus norvegicus [14]): 0.21 mg/kg

SMILES: COc1ccc(C[C@@H](C)N)cc1OC
- ED50 (Rattus norvegicus [4]): 3 mg/kg
- ED50 (Rattus norvegicus [5]): 5.4 mg/kg

SMILES: C[C@H](N)Cc1ccccc1 [DEXTROAMPHETAMINE]
- Activity (Rattus norvegicus [6]): 20 - 80%
- ED50 (Rattus norvegicus [18]): 0.62 mg/kg
- Ki [20]: 46000 nM
- ED50 (Rattus norvegicus [12]): 0.23 mg/kg
- ED50 (Rattus norvegicus [21]): 0.2 mg/kg
- Activity (Rattus norvegicus [8]): 20 - 80%
- EC50 [10]: 7 nM
- ED50 (Rattus norvegicus [17]): 0.4 mg/kg
- ED50 (Rattus norvegicus [13]): 0.44 mg/kg
- ED50 (Rattus norvegicus [14]): 0.28 mg/kg

SMILES: COc1cc(C[C@@H](C)N)c(OC)cc1I
- ED50 (Rhesus monkey): 0.04 mg/kg
- ED50 (Rattus norvegicus [22]): 0.2 mg/kg

SMILES: C[C@H](N)Cc1ccc2c(c1)OCO2
- ED50 (Rattus norvegicus [4]): 0.7 mg/kg
- EC50 [9]: 98 nM
- EC50 [10]: 50 nM
- EC50 [11]: 100 nM

SMILES: C[C@@H](N)Cc1c[nH]c2ccccc12
- Ki [2]: 5000 nM

SMILES: c1ccc(CCCCCN2CCCCC2Cc2ccccc2)cc1 (stereo not given)
- Ki [3]: 0.08 nM

SMILES: CC[C@@H](N)Cc1c[nH]c2ccccc12
- Activity (Rattus norvegicus [16]): 33%
- ED50 (Rattus norvegicus [6]): 1.6 mg/kg
- ED50 (Rattus norvegicus [7]): 1.6 mg/kg
- EC50 [9]: 900 nM
- ED50 (Rattus norvegicus [8]): 1.3 mg/kg
- EC50 [10]: > 10000 nM
- ED50 (Rattus norvegicus [17]): 7.8 mg/kg
- EC50 [11]: 68 nM

SMILES: CC(Cc1ccccc1)NCCCCCc1ccccc1 (stereo not given)
- Ki [20]: 6.3 nM

SMILES: C=CCN1CCC2(C)c3cc(O)ccc3CC1C2C (racemic)
- Ki [20]: 430 nM

SMILES: C[C@@H](N)Cc1ccc2c(c1)OCO2
- ED50 (Rattus norvegicus [4]): 1.5 mg/kg
- EC50 [9]: 900 nM
- EC50 [10]: 290 nM
- EC50 [11]: 310 nM

SMILES: CNC(C)C(=O)c1ccc(C)cc1 (stereo not given) [MEPHEDRONE]
- EC50 [23]: 118 nM
- EC50 [24]: 49.1 nM
- Ratio EC50 (Homo sapiens): 2.5

SMILES: c1ccc(CCCCCN2CCCCC2)cc1
- Ki [3]: 0.38 nM

SMILES: CN[C@@H](C)Cc1ccc2c(c1)OCO2
- ED50 (Rattus norvegicus [4]): 0.48 mg/kg
- Ki [25]: 15800 nM
- EC50 [9]: 142 nM
- EC50 [10]: 136 nM
- EC50 [11]: 74 nM

SMILES: CCNC(C)Cc1cccc(C(F)(F)F)c1 (stereo not given) [FENFLURAMINE]
- EC50 [10]: 740 nM
